ChEMBL document CHEMBL1201862, “PubChem BioAssay data set” (2004)
The source made the active and inactive calls.

What was measured:
[1] = tested on: A-375; assay: MITF: Counter assay: A375 proliferation Measured in Cell-Based System Using Plate Reader - 2084-03_Inhibitor_Dose_DryPowder_Activity. [Related pubchem assays (depositor defined):AID488944]; assay type: functional; details: Homo sapiens
[2] = tested on: A-375; assay: proliferation inhibition in MITF-low A375 cells – cell-based, cherry-pick samples, set 2, counter-screen for MITF modulator project, dose response (AID 540335); assay type: functional; details: Homo sapiens
[3] = tested on: HEK293; assay: HEK293T cell viability loss, resazurin readout – resazurin fluorescence, cytotoxicity control for NF-kB activator project, SAR follow-up (AID 493251); assay type: functional, cell-based; details: Homo sapiens
[4] = tested on: Jurkat; assay: SAR Analysis of small molecule inhibitors of […] specific antigen receptor-induced NF-kB activation in a Jurkat cell line using a luminescence assay - Set 3. [Related pubchem assays (depositor defined):AID435022, AID435025, AID465]; assay type: functional, cell-based; details: Homo sapiens
[5] = tested on: HEK293; assay: SAR Analysis of small molecule inhibitors of B-cell specific antigen receptor-induced NF-kB activation in a HEK-293T cell line using a luminescence assay - Set 2. [Related pubchem assays (depositor defined):AID435022, AID435025, AID489021]; assay type: functional, cell-based; details: Homo sapiens
[6] = target: SUMO E1/E2 (Homo sapiens, UniProt P63279+Q9UBE0+Q9UBT2); assay: SAR analysis of SUMOylation using HTRF in an in-Vitro dose response assay. [Related pubchem assays (depositor defined):AID2006, AID2011, AID2018, AID2069, AID2658]; assay type: functional
[7] = target: T1, Voltage-gated N-type calcium channel alpha-1B subunit/Amyloid beta A4 precursor protein-binding family A member 1 (Homo sapiens, UniProt Q00975+Q02410); assay: disruptors of Mint-PDZ/N-type channel peptide interaction – biochemical, HTRF, set 2, SAR follow-up (AID 434980); assay type: functional
T1 sequence (Q00975 whole entry): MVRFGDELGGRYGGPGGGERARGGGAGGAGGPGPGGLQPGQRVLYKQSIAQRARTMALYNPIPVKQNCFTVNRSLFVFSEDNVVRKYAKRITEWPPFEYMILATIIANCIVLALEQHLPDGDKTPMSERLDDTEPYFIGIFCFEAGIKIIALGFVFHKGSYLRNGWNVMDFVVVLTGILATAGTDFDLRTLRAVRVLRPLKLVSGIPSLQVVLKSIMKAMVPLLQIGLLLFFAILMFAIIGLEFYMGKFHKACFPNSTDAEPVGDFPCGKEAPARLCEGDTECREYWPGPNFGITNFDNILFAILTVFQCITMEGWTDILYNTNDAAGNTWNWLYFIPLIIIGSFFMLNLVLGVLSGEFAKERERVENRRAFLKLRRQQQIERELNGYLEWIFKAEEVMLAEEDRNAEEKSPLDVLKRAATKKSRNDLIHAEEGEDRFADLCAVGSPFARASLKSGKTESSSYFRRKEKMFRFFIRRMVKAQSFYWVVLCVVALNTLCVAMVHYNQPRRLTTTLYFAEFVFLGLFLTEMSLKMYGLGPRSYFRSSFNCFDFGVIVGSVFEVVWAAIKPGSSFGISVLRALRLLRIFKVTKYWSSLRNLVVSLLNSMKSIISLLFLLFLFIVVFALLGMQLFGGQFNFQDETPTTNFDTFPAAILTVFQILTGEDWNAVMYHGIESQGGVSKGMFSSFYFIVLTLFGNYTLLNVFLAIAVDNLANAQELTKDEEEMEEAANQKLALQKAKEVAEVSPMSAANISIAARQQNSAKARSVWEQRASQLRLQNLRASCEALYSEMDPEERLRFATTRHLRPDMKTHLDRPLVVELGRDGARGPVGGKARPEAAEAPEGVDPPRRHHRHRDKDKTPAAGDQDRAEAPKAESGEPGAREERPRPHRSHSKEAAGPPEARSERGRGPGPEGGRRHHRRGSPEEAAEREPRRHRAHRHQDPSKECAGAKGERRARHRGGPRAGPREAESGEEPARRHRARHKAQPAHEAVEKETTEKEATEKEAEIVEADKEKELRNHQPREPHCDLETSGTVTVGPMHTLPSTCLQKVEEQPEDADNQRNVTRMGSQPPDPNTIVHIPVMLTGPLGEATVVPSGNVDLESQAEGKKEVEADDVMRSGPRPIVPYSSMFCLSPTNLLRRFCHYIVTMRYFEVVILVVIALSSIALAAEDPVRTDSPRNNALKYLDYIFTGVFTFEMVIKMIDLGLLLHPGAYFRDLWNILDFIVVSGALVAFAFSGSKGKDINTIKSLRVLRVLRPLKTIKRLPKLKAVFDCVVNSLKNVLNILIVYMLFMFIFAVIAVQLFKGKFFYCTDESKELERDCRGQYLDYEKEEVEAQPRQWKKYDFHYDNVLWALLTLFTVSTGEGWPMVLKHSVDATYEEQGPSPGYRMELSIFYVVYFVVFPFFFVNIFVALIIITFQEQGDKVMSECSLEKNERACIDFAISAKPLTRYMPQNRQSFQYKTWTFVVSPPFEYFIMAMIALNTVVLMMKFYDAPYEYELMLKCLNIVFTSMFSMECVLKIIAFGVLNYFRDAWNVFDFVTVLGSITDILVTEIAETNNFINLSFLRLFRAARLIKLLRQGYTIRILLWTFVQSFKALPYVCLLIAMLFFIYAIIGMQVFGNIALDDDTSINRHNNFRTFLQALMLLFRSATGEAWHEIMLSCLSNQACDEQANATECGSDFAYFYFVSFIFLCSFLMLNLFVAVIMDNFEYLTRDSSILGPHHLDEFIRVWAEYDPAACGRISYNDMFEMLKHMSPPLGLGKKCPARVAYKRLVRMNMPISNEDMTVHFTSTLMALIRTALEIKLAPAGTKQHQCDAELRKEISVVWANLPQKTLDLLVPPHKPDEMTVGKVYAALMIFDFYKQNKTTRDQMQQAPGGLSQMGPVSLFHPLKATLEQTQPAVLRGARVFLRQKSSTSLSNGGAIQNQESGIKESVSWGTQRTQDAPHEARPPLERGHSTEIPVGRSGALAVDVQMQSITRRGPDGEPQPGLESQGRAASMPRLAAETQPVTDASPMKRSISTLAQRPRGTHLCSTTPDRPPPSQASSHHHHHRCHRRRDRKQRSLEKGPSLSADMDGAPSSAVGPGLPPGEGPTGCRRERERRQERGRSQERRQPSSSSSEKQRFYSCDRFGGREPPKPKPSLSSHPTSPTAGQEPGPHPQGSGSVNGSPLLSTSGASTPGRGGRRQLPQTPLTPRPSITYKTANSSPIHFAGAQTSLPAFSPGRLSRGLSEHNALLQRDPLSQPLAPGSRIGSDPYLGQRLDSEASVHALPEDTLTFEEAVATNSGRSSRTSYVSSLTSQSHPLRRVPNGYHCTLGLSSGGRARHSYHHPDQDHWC
T1 sequence (Q02410 whole entry): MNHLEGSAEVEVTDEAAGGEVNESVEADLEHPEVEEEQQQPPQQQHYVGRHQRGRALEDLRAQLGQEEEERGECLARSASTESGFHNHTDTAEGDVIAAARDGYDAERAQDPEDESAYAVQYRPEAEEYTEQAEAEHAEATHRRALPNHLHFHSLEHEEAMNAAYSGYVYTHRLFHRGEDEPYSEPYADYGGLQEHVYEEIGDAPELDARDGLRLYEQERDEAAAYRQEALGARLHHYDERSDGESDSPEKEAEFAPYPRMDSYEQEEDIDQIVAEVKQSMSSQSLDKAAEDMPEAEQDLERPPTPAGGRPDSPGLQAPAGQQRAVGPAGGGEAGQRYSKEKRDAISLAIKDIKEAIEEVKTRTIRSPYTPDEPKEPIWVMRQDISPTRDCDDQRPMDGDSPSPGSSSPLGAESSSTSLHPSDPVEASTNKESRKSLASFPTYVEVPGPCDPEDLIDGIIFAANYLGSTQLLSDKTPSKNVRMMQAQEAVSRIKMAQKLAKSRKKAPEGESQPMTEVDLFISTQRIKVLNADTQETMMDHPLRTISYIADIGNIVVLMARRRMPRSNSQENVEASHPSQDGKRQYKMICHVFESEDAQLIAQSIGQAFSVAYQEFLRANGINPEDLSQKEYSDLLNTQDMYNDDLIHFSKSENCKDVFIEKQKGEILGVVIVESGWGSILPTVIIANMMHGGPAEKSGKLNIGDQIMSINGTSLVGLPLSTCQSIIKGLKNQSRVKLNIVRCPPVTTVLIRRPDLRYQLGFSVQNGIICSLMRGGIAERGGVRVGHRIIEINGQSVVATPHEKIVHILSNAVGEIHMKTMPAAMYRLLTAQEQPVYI

[8] = target: DNA repair protein RAD52 homolog (Homo sapiens, UniProt P43351); assay type: functional, biochemical
Sequence of DNA repair protein RAD52 homolog (P43351 whole entry): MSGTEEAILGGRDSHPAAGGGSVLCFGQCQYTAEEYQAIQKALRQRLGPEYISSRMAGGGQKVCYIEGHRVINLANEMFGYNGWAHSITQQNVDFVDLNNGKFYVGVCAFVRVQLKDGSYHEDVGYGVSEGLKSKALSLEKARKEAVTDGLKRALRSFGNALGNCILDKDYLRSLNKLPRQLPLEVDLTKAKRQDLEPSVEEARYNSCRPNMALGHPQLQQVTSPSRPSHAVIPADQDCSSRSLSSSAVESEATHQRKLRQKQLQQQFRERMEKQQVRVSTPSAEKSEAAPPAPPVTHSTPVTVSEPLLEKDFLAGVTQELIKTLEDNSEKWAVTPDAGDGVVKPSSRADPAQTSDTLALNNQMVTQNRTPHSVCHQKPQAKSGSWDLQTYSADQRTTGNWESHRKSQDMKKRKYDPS

[9] = target: T1, Voltage-gated N-type calcium channel alpha-1B subunit/Amyloid beta A4 precursor protein-binding family A member 1; assay: disruptors of Mint-PDZ/N-type channel peptide interaction – biochemical, HTRF, SAR follow-up (AID 2489); assay type: functional
[10] = tested on: Escherichia coli; assay: microbe, parasite or virus in culture
[11] = target: T2, Heat shock factor protein 1 (Mus musculus, UniProt P38532); assay: decrease of HSF1-responsive luciferase luminescence – cell-based, NIH3T3, dose retest, confirmation (AID 2382); assay type: functional;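 note: NIH3T3 fibroblasts with HSF1-driven luciferase reporter stressed by proteasome inhibitor MG132; luminescence from HSF1-driven luciferase expression after 8 hours of MG132 stress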
T2 sequence (P38532 whole entry): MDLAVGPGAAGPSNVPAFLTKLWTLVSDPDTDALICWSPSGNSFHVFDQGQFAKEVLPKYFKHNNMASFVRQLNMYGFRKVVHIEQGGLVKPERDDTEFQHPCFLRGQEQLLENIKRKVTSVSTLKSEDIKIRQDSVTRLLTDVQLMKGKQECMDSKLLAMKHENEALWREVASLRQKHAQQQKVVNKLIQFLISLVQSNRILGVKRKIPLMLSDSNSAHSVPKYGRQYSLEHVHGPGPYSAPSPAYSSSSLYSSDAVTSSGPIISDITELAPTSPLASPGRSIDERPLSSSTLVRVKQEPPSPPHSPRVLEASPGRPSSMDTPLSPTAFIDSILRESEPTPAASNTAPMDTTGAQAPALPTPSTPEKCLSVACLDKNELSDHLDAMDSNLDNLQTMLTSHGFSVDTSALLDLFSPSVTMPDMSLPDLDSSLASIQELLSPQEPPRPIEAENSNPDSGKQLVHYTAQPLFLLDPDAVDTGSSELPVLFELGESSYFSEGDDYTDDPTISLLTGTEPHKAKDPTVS

[12] = target: Phospholipase D1 (Homo sapiens, UniProt Q13393); assay: cellular phospholipase D1 inhibition IC50 – cell-based, dose response (AID 602151); assay type: functional;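 note: cellular PLD1 assay in Calu-1 cells stimulated with PMA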
Sequence of Phospholipase D1 (Q13393 whole entry): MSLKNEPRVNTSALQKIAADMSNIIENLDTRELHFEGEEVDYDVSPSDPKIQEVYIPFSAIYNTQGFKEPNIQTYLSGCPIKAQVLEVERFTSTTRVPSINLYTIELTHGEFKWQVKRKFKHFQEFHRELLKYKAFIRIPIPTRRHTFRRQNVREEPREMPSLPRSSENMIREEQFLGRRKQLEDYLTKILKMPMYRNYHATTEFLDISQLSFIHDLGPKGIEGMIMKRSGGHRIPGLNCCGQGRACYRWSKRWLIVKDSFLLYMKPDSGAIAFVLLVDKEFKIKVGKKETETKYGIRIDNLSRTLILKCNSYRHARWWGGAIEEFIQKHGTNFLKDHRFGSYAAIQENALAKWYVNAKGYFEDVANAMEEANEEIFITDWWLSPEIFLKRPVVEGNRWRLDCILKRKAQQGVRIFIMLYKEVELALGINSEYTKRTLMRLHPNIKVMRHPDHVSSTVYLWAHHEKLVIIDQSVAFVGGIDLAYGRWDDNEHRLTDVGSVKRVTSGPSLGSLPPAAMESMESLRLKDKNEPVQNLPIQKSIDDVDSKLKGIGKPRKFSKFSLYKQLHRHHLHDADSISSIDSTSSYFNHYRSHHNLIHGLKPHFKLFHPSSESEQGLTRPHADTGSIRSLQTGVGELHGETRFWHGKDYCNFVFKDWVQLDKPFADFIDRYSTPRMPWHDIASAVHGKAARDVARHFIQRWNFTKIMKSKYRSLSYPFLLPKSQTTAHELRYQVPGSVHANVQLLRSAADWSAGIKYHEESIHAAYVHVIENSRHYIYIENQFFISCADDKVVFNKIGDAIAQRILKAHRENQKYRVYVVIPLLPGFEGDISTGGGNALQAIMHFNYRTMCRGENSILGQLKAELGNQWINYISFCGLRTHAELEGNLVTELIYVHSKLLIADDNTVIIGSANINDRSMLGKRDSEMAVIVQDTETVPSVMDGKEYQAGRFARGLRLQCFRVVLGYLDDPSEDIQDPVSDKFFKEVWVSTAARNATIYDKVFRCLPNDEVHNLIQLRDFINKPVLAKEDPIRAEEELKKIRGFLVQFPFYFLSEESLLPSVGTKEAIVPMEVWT

[13] = target: Phospholipase D2 (Homo sapiens, UniProt O14939); assay: cellular phospholipase D2 inhibition IC50 – cell-based, dose response (AID 602147); assay type: functional;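 note: cellular assay in HEK293 cells overexpressing GFP-tagged PLD2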
[14] = target: T3, Sentrin-specific protease 8 (Homo sapiens, UniProt Q96LD8); assay: inhibition of human SENP8 cleavage activity – biochemical, luminescence, SAR follow-up (AID 504501); assay type: functional
T3 sequence (Q96LD8 whole entry): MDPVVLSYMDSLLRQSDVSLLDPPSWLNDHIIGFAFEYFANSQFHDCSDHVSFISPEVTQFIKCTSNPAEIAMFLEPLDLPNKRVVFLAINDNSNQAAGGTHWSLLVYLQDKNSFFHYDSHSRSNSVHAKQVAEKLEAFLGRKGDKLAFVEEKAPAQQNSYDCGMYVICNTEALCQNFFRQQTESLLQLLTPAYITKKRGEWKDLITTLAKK

[15] = target: T4, Sentrin-specific protease 7 (Homo sapiens, UniProt Q9BQF6); assay: inhibition of human SENP7 cleavage activity – biochemical, luminescence, SAR follow-up (AID 504497); assay type: functional
T4 sequence (Q9BQF6 whole entry): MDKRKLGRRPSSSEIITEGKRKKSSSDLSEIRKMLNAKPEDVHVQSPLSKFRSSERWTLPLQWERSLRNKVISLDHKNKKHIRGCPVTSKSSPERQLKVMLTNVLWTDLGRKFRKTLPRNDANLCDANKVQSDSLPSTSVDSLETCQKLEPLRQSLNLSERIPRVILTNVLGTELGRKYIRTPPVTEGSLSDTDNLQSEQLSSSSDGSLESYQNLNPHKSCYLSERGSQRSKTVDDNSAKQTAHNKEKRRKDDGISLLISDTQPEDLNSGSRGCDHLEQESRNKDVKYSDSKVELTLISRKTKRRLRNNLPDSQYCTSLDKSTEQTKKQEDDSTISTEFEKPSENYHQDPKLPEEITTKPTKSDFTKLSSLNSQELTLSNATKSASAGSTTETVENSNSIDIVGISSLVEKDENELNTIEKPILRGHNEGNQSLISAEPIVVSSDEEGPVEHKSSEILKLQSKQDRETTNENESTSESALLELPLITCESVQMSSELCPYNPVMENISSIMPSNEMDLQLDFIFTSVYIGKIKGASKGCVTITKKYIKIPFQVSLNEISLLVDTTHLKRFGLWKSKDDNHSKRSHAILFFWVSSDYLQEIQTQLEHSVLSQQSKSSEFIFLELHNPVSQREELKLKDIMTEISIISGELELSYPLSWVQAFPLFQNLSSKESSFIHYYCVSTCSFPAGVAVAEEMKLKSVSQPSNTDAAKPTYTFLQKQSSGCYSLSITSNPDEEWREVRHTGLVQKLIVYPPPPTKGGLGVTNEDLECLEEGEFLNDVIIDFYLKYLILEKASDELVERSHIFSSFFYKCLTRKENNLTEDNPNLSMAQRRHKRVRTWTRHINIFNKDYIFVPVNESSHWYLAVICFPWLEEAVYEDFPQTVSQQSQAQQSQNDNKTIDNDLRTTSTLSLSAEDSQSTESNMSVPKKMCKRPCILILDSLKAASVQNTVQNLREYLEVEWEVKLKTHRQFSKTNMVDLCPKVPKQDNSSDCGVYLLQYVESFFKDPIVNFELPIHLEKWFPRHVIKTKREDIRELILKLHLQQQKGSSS

[16] = target: T5, Caspase-3 (Homo sapiens, UniProt P42574); assay: SAR Analysis of small molecule inhibitors of Sentrin-specific proteases (SENPs) using a Caspase-3 Selectivity assay. [Related pubchem assays (depositor defined):AID2540, AID2599, AID434973, AID489001]; assay type: functional
T5 sequence (P42574 whole entry): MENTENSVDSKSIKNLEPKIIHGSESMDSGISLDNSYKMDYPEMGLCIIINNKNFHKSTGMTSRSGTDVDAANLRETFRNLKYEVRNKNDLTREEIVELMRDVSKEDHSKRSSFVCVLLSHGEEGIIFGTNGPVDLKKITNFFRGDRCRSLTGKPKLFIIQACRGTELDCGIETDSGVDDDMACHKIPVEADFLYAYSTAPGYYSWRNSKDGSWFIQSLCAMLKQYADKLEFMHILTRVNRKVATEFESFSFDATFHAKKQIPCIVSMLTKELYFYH

[17] = target: T6, Sentrin-specific protease 6 (Homo sapiens, UniProt Q9GZR1); assay: SAR Analysis of small molecule inhibitors of Sentrin-specific protease 6 (SENP6) using a Luminescent assay. [Related pubchem assays (depositor defined):AID2582, AID2599]; assay type: functional
T6 sequence (Q9GZR1 whole entry): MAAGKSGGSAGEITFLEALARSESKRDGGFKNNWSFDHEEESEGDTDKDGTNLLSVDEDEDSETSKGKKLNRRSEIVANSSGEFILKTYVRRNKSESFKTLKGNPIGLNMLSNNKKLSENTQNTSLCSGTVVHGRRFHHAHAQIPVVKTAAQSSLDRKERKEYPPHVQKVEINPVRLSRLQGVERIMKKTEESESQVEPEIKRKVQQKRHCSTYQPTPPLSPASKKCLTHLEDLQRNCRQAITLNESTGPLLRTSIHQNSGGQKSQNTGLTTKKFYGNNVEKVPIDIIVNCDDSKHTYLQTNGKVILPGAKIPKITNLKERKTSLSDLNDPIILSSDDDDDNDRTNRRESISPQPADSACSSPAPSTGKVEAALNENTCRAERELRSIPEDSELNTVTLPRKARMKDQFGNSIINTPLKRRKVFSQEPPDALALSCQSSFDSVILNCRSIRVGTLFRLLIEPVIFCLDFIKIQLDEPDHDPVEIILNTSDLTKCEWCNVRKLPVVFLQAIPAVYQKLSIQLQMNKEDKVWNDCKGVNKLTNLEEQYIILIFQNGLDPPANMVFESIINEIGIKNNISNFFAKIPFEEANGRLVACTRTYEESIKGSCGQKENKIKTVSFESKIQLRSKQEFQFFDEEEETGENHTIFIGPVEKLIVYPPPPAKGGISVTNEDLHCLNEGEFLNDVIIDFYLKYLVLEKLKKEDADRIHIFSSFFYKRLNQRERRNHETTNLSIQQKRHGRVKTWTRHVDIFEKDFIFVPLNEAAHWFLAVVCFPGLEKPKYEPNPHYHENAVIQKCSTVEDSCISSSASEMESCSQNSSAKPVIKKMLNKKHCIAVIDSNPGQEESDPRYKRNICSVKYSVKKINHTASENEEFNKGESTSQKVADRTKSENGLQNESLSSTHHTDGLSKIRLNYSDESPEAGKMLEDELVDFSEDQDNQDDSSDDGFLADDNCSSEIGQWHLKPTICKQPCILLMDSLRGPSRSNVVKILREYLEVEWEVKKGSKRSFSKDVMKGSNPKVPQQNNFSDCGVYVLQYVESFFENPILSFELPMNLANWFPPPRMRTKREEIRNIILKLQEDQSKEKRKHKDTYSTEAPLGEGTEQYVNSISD

[18] = tested on: Escherichia coli; assay: microbe, parasite or virus in culture; remark: listed apart in the source

## CCOc1ccc(N(CC(=O)Nc2ccc(OC)cc2)S(C)(=O)=O)cc1
[1]
  AC50: > 35 µM (active)
[2]
  AC50: > 35 µM (active)

## CCOc1ccc(-c2nc(CSCC(=O)NCCc3ccccc3)c(C)o2)cc1
[3]
  IC50: 35.6 µM (inactive)
[4]
  IC50: 55 µM (inactive)
[5]
  IC50: 22.9 µM (inactive)

## CCN(CC)CCNC(=O)c1cc(-c2ccco2)nc2ccccc12
[6]
  IC50: 2.01 µM (active)
[7]
  IC50: 6 µM (active)
[8]
  AC50: 11.7 µM (active)
[9]
  IC50: 5.19 µM (active)

## CCN1CCN(CCCNc2[nH]cnc3ncnc2-3)CC1
[10]
  AC50: 74.1 µM (active)
[11]
  EC50: > 195 µM (not active)

## C[C@@H](CN1CCC(n2c(=O)[nH]c3ccccc32)CC1)NC(=O)c1ccco1
[12]
  IC50: 0.19 µM (active)
[13]
  IC50: 7.9 µM (active)

## COc1ccccc1CC(=O)Nc1ccc(-c2noc(/C=C/c3ccccc3)n2)cc1
[14]
  IC50: > 99 µM (inactive)
[15]
  IC50: > 99 µM (inactive)
[16]
  IC50: > 99 µM (inactive)
[17]
  IC50: > 99 µM (inactive)

## O=C(NCCN1CCC2(CC1)C(=O)NCN2c1ccc(Cl)cc1)c1ccc(Cl)cc1
[12]
  IC50: 3.59 µM (active)
[13]
  IC50: 0.635 µM (active)

## CC(C)CNC(=O)CCc1nc(-c2ccc(C(C)(C)C)cc2)no1
[3]
  IC50: > 80 µM (inactive)
[4]
  IC50: 2.97 µM (active)
[5]
  IC50: 1.51 µM (active)

## Cc1ccc(C2CC2/C(=N/O)c2ccc(F)cc2)cc1 (centres undefined)
[10]
  AC50: 53.3 µM (active)
[18]
  AC50: 25.9 µM (active)
